Values after ≈ are worked out from the molar mass of the structure shown. Active and inactive are the calls of the source. No cut-off for these calls is given here. Peptide text beside a SMILES is read from it. * marks the point of attachment. Lauroyl = CCCCCCCCCCCC(=O)*; Octanoyl = CCCCCCCC(=O)*
What was measured:
[1] = tested on: Klebsiella pneumoniae; test: Antibacterial activity against Klebsiella pneumoniae ATCC 700603 assessed as reduction in bacterial growth incubated for 18 to 24 hrs by broth microdilution method; format: functional; details: time 18-24 hrs
[2] = tested on: Escherichia coli; test: Antibacterial activity against Escherichia coli ATCC 25922 assessed as reduction in bacterial growth incubated for 18 to 24 hrs by broth microdilution method; format: functional; details: time 18-24 hrs
[3] = tested on: Pseudomonas aeruginosa; test: Antibacterial activity against Pseudomonas aeruginosa ATCC 27853 assessed as reduction in bacterial growth incubated for 18 to 24 hrs by broth microdilution method; format: functional; details: time 18-24 hrs
[4] = tested on: Staphylococcus aureus; test: Antibacterial activity against methicillin-resistant Staphylococcus aureus ATCC 33591 assessed as reduction in bacterial growth incubated for 18 to 24 hrs by broth microdilution method; format: functional; details: time 18-24 hrs
[5] = tested on: Staphylococcus aureus; test: Antibacterial activity against methicillin-resistant Staphylococcus aureus 75 assessed as reduction in bacterial growth incubated for 18 to 24 hrs by broth microdilution method; format: functional; details: time 18-24 hrs
[6] = tested on: Staphylococcus aureus; test: Antibacterial activity against Staphylococcus aureus 113 assessed as reduction in bacterial growth incubated for 18 to 24 hrs by broth microdilution method; format: functional; details: time 18-24 hrs
[7] = tested on: Enterococcus faecalis; test: Antibacterial activity against Enterococcus faecalis ATCC 29212 assessed as reduction in bacterial growth incubated for 18 to 24 hrs by broth microdilution method; format: functional; details: time 18-24 hrs
[8] = tested on: Acinetobacter baumannii; test: Antibacterial activity against Acinetobacter baumannii 92359 assessed as reduction in bacterial growth incubated for 18 to 24 hrs by broth microdilution method; format: functional; details: time 18-24 hrs
[9] = tested on: Pseudomonas aeruginosa; test: Antibacterial activity against Pseudomonas aeruginosa 124 assessed as reduction in bacterial growth incubated for 18 to 24 hrs by broth microdilution method; format: functional; details: time 18-24 hrs
[10] = tested on: Escherichia coli; test: Antibacterial activity against Escherichia coli assessed as reduction in survival bacterial growth in presence of <=2 ug/ml chymotrypsin measured after1 hr by absorbance based analysis; format: functional, organism-based; details: time 1.0 hrs
[11] = tested on: Escherichia coli; test: Antibacterial activity against Escherichia coli assessed as reduction in survival bacterial growth in presence of ZnCl2 measured after 18 to 24 hrs (reference value: 8 microM); format: functional; details: time 18-24 hrs
[12] = Stability in mouse serum assessed as half life measured after 1 hr by HPLC analysis; format: ADME, cell-free
[13] = Stability in mouse serum assessed as retention time measured after 1 hr by RP-HPLC analysis; format: ADME, cell-free
[14] = tested on: Staphylococcus aureus; test: Bactericidal activity against Staphylococcus aureus 25923 assessed as eradication of bacteria at 2 times MIC measured within 1 hr by time-kill assay; format: functional, organism-based
[15] = tested on: Escherichia coli; test: Bactericidal activity against Escherichia coli 25922 assessed as eradication of bacteria at 2 times MIC measured within 1 hr by time-kill assay; format: functional, organism-based
[16] = tested on: Staphylococcus aureus; test: Induction of morphological changes in Staphylococcus aureus assessed as cell aggregation at 2 times MIC measured after 30 mins by SEM analysis; format: functional, organism-based
[17] = tested on: Staphylococcus aureus; test: Induction of morphological changes in Staphylococcus aureus assessed as cell aggregation adhesion at 2 times MIC measured after 120 mins by SEM analysis; format: functional, organism-based
[18] = tested on: Klebsiella pneumoniae; test: Induction of morphological changes in Klebsiella pneumoniae assessed as cell aggregation at 2 times MIC measured after 30 mins by SEM analysis; format: functional, organism-based
[19] = tested on: Klebsiella pneumoniae; test: Induction of morphological changes in Klebsiella pneumoniae assessed as cell adhesion at 2 times MIC measured after 30 mins by SEM analysis; format: functional, organism-based
[20] = tested on: Klebsiella pneumoniae; test: Induction of morphological changes in Klebsiella pneumoniae assessed as cell contraction at 2 times MIC measured after 120 mins by SEM analysis; format: functional, organism-based
[21] = tested on: Klebsiella pneumoniae; test: Induction of morphological changes in Klebsiella pneumoniae assessed as cell adhesion at 2 times MIC measured after 120 mins by SEM analysis; format: functional, organism-based
[22] = tested on: Staphylococcus aureus; test: Induction of cell membrane disruption in Staphylococcus aureus assessed as PI uptake at 2 to 4 times MIC measured after 120 mins by PI staining based flow cytometry analysis (Rvb =<10 %); format: functional; details: 2 h
[23] = tested on: Escherichia coli; test: Induction of cell membrane disruption in Escherichia coli assessed as PI uptake at 2 times MIC measured after 120 mins by PI staining based flow cytometry analysis (Rvb =<10 %); format: functional; details: 2 h
[24] = tested on: Escherichia coli; test: Induction of cell membrane disruption in Escherichia coli assessed as PI uptake at 4 times MIC measured after 120 mins by PI staining based flow cytometry analysis (Rvb =<10 %); format: functional; details: 2 h
[25] = tested on: Cell membrane; test: Induction of outer membrane permeabilization in Escherichia coli assessed as increase in fluorescence intensity measured for 10 mins by fluorescence based NPN uptake assay
[26] = tested on: Cell membrane; test: Induction of outer membrane permeabilization in Escherichia coli assessed as increase in fluorescence intensity at 2 to 4 times MIC measured for 10 mins by fluorescence based NPN uptake assay
[27] = tested on: Lipopolysaccharide (LPS); test: Binding affinity to LPS (unknown origin) assessed as reduction in bacterial mortality at 2 times MIC preincubated with LPS for 1 hr followed by bacteria addition for 24 hrs by spectrophotometric analysis
[28] = tested on: Staphylococcus aureus; test: Bactericidal activity against Staphylococcus aureus assessed as bacterial mortality rate at 2 times MIC preincubated with LTA for 1 hr followed by bacteria addition for 24 hrs by spectrophotometric analysis relative to control; format: functional
[29] = tested on: Staphylococcus aureus; test: Antibacterial activity against Staphylococcus aureus 25923 at sub-MIC concentration measured after 15 passages; format: functional, organism-based
[30] = tested on: Staphylococcus aureus; test: Synergistic antibacterial activity against Staphylococcus aureus 25923 measured after 18 hrs in presence of cephalothin by absorbance based analysis; format: functional, organism-based
[31] = tested on: Staphylococcus aureus; test: Synergistic antibacterial activity against Staphylococcus aureus 25923 measured after 18 hrs in presence of streptomycin by absorbance based analysis; format: functional, organism-based
[32] = tested on: Staphylococcus aureus; test: Synergistic antibacterial activity against methicillin-resistant Staphylococcus aureus measured after 18 hrs in presence of cephalothin by absorbance based analysis; format: functional, organism-based
[33] = tested on: Staphylococcus aureus; test: Synergistic antibacterial activity against Staphylococcus aureus 25923 assessed as fractional inhibitory in presence of polymyxin B by checker board assay; format: functional
[34] = tested on: Staphylococcus aureus; test: Synergistic antibacterial activity against methicillin-resistant Staphylococcus aureus assessed as fractional inhibitory in presence of polymyxin B by checker board assay; format: functional
[35] = Acute toxicity in male BALB/c mouse assessed mouse survival at 100 to 130 mg/kg, ip measured within 3 hrs; format: organism-based; details: in vivo, dose 100-130 mg/kg
[36] = tested on: Klebsiella pneumoniae; test: Antibacterial activity against Klebsiella pneumoniae ATCC 700603 infected in male BALB/c mouse lung infection model assessed as reduction in number of inflammatory cells at 5 mg/kg, ip measured after 6 to 36 hrs; format: functional, organism-based; details: time 6-36 hrs
[37] = tested on: Staphylococcus aureus; test: Antibacterial activity against methicillin resistant Staphylococcus aureus infected in male BALB/c mouse model of skin wound infection assessed as reduction in wound area at 2 mg/kg, ip measured after 10 days post infection relative to control; format: functional; parameters: scale not given: the % may be the effect or the level left; details: time 10 day
[38] = tested on: Staphylococcus aureus; test: Antibacterial activity against methicillin resistant Staphylococcus aureus infected in male BALB/c mouse model of skin wound infection assessed as appearance of intact structure of stratum corneum at 2 mg/kg, ip measured after 10 days post infection; format: functional, organism-based; details: time 10.0 day
[39] = tested on: Staphylococcus aureus; test: Antibacterial activity against methicillin resistant Staphylococcus aureus infected in male BALB/c mouse model of skin wound infection assessed as healthy development of sebaceous glands at 2 mg/kg, ip measured after 10 days post infection; format: functional, organism-based; details: time 10.0 day
[40] = tested on: Staphylococcus aureus; test: Antibacterial activity against methicillin resistant Staphylococcus aureus infected in male BALB/c mouse model of skin wound infection assessed as healthy development of hair follicles at 2 mg/kg, ip measured after 10 days post infection; format: functional, organism-based; details: time 10.0 day

| SMILES | MIC [1] [µM] | MIC [2] [µM] | MIC [3] [µM] | MIC [4] [µM] | MIC [5] [µM] | MIC [6] [µM] | MIC [7] [µM] | MIC [8] [µM] | MIC [9] [µM] | Activity [10] | MIC [11] [µM] | half-life [12] [h] | Retention_time [13] [min] | Activity [14] | Activity [15] | Activity [16] | Activity [17] | Activity [18] | Activity [19] | Activity [20] | further results |
| --- | --- | --- | --- | --- | --- | --- | --- | --- | --- | --- | --- | --- | --- | --- | --- | --- | --- | --- | --- | --- | --- |
| CCCCCCCCCCCC(=O)N[C@@H](CCCCN)C(=O)N[C@@H](CCCCN)C(=O)N[C@@H](Cc1c[nH]c2ccccc12)C(=O)N[C@@H](Cc1c[nH]c2ccccc12)C(N)=O (Lauroyl-KKWW-NH2) | 16 (≈ 13.2 µg/mL) | 8 (≈ 6.62 µg/mL) | 8 (≈ 6.62 µg/mL) | 4 (≈ 3.31 µg/mL) | 4 (≈ 3.31 µg/mL) | 4 (≈ 3.31 µg/mL) | 8 (≈ 6.62 µg/mL) | 16 (≈ 13.2 µg/mL) | 8 (≈ 6.62 µg/mL) | Active | 8 | 4.25 | 19.718 | Active | Active | Active | Active | Active | Active | Active; Compound Showed More Pronounced Effect Compared To 30 Mins Incubation Time | Activity [21]: Active; Compound Showed More Pronounced Effect Compared To 30 Mins Incubation Time; Activity [22]: 100%; Activity [23]: >50%; Activity [24]: 100%; Activity [25]: Dose-dependent-effect; Activity [26]: Active; Activity [27]: Active; Activity [28]: >50%; Activity [29]: inactive; Activity [30]: Active; Activity [31]: Active; Activity [32]: Active; fractional inhibitory concentration index (FICI) [33]: 0.5; fractional inhibitory concentration index (FICI) [34]: 0.375; Activity [35]: Toxic; Activity [36]: Active; Activity [37]: <20%; Activity [38]: Active; Activity [39]: Active; Activity [40]: Active |
| CCCCCCCC(=O)NCCCC[C@H](NC(=O)CCCCCCC)C(=O)N[C@@H](CCCCN)C(=O)N[C@@H](CCCCN)C(=O)N[C@@H](Cc1c[nH]c2ccccc12)C(=O)N[C@@H](Cc1c[nH]c2ccccc12)C(N)=O (Octanoyl-K(Octanoyl)KKWW-NH2) | 16 (≈ 16.4 µg/mL) | 8 (≈ 8.21 µg/mL) | 16 (≈ 16.4 µg/mL) | 8 (≈ 8.21 µg/mL) | 8 (≈ 8.21 µg/mL) | 8 (≈ 8.21 µg/mL) | 16 (≈ 16.4 µg/mL) | 8 (≈ 8.21 µg/mL) | 8 (≈ 8.21 µg/mL) | Active | 4 | 6.3 | 19.975 | Active | Active | Active | Active | Active | Active | Active; Compound Showed More Pronounced Effect Compared To 30 Mins Incubation Time | Activity [21]: Active; Compound Showed More Pronounced Effect Compared To 30 Mins Incubation Time; Activity [22]: 100%; Activity [23]: >50%; Activity [24]: 100%; Activity [25]: Dose-dependent-effect; Activity [26]: Active; Activity [27]: Active; Activity [28]: >50%; Activity [29]: inactive; Activity [30]: Active; Activity [31]: Active; Activity [32]: Active; fractional inhibitory concentration index (FICI) [33]: 0.5; fractional inhibitory concentration index (FICI) [34]: 0.375; Activity [35]: Toxic; Activity [36]: Active; Activity [37]: <20%; Activity [38]: Active; Activity [39]: Active; Activity [40]: Active |

From ChEMBL document CHEMBL6114980, “Single or double lipid-modified ultra-short antimicrobial peptides for treating infections caused by resistant bacteria” (Eur J Med Chem, 2025)
